The text below walks through data of PubChem BioAssay (NCI).

Structures are written as SMILES. Values joined by “and” are separate entries in the source; they are usually repeats but may differ in a detail not shown here. Equal entries are not always repeated.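 Compound exposure: 48 hours, 5 concentrations, 96-well plates. Here, GI50 denotes the concentration required for 50% inhibition of growth. At the TGI there is no net growth.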 Where only a bound is given, the exact number is not on record here.

Some test systems named below: CAKI-1 renal; CCRF-CEM leukemia; DU-145 prostate; MDA-MB-231 breast; MOLT-4 leukemia; NCI-H226 lung; OVCAR-3 ovarian; PC-3 prostate; SN12C renal; SNB-19 CNS.
Assay in all cases: DTP human tumour cell line panel, 48 h

What is called GI50 is the concentration giving 50% growth inhibition. As a reminder, the TGI is the concentration giving total growth inhibition. Low values mean greater sensitivity of the cells, high ones lower sensitivity of the cells. Take `COc1ccc(/C=N\NC(=O)c2ccc3nc(-c4ccc(Cl)cc4)[nH]c3c2)cc1`: the GI50 with CAKI-1 renal was 2.1 µM; in the test with CCRF-CEM leukemia, 4.9 µM; in the test with DU-145 prostate it was 1.98 µM; with MDA-MB-231 breast, 2.42 µM; in the test on MOLT-4 leukemia, 4.53 µM; in the test with NCI-H226 lung it was 1.79 µM. Also, the GI50 is 2.28 µM in the test with OVCAR-3 ovarian, 1.66 µM with PC-3 prostate, 2.46 µM in the test on SN12C renal and 3.13 µM with SNB-19 CNS. The TGI with CAKI-1 renal is 6.03 µM; with CCRF-CEM leukemia, > 100 µM; in the test on DU-145 prostate, 4.61 µM; in the test with MDA-MB-231 breast it was 5.45 µM; in the test with MOLT-4 leukemia, 30.4 µM; with NCI-H226 lung it was 4.43 µM. The TGI amounted to 5.14 µM in the test with OVCAR-3 ovarian, 3.76 µM with PC-3 prostate, 6.79 µM with SN12C renal and 7.95 µM in the test with SNB-19 CNS.

Turning to `O=c1c2c(=NCCN3CCCC3)cc3c(=O)n(CCCN4CCOCC4)c(=O)c4ccc(c(O)n1CCCN1CCOCC1)c2c4-3`, the GI50 in the test on CAKI-1 renal is 0.218 µM; in the test with CCRF-CEM leukemia, 0.0532 µM; with DU-145 prostate, 0.088 µM; in the test with MDA-MB-231 breast it was 0.197 µM; in the test with MOLT-4 leukemia, < 0.0216 µM; in the test on NCI-H226 lung, 0.155 µM. Further, the GI50 was 0.0994 µM in the test on OVCAR-3 ovarian, 0.0919 µM in the test on PC-3 prostate, 0.138 µM with SN12C renal and 0.168 µM with SNB-19 CNS. For the same compound, the TGI stood at 1.41 µM in the test on CAKI-1 renal; 1.59 µM in the test with CCRF-CEM leukemia; 1.67 µM in the test on DU-145 prostate; 0.919 µM with MDA-MB-231 breast; 5.71 µM in the test on MOLT-4 leukemia; 0.83 µM in the test on NCI-H226 lung. Further, the TGI in the test on OVCAR-3 ovarian amounted to 1 µM; with PC-3 prostate, 0.638 µM; with SN12C renal, 4.54 µM; in the test with SNB-19 CNS it was 2.09 µM.

Regarding `COc1ccc(-n2cc(-c3cc(OC)c(OC)c(OC)c3)[nH]c2=S)cc1Cl`, the GI50 in the test on CAKI-1 renal is 4.86 µM; with CCRF-CEM leukemia, 0.6 µM; in the test on DU-145 prostate, 35.7 µM; with MDA-MB-231 breast, 7.7 µM; in the test on MOLT-4 leukemia, > 100 µM; in the test on NCI-H226 lung it was 27.1 µM. Further, the GI50 with OVCAR-3 ovarian is 26.1 µM; in the test on PC-3 prostate, 54.6 µM; in the test on SN12C renal, 46.7 µM; in the test with SNB-19 CNS, 19.5 µM. Besides, the TGI in the test on CAKI-1 renal was 33.7 µM; in the test with CCRF-CEM leukemia, > 100 µM; in the test on DU-145 prostate it was > 100 µM; in the test with MDA-MB-231 breast, 49.8 µM; with MOLT-4 leukemia it was > 100 µM; in the test with NCI-H226 lung it was > 100 µM. Besides, the TGI is > 100 µM in the test on OVCAR-3 ovarian, > 100 µM in the test with PC-3 prostate, > 100 µM in the test with SN12C renal and 58.4 µM with SNB-19 CNS.

Consider `Cc1ccc(-c2cc(-c3ccc(C)cc3)nc(N3CCN(CCNc4ccnc5cc(Cl)ccc45)CC3)n2)cc1`, for which the GI50 with CAKI-1 renal is 7.56 µM; in the test with CCRF-CEM leukemia, 1.77 µM; in the test on DU-145 prostate, 2.06 µM; with MDA-MB-231 breast, 2.52 µM; in the test with MOLT-4 leukemia, 6.25 µM; with NCI-H226 lung it was 5.13 µM. For the same compound, the GI50 with OVCAR-3 ovarian is 1.29 µM; in the test on PC-3 prostate, 3.14 µM; in the test on SN12C renal it was 4.71 µM; in the test with SNB-19 CNS, 6.51 µM. The TGI in the test on CAKI-1 renal was 16.4 µM; in the test with CCRF-CEM leukemia it was > 50 µM; in the test with DU-145 prostate, 8.5 µM; in the test on MDA-MB-231 breast, 9.19 µM; in the test with MOLT-4 leukemia, > 50 µM; with NCI-H226 lung it was 18.1 µM. In addition, the TGI was determined as 3.26 µM in the test with OVCAR-3 ovarian, 30.9 µM in the test on PC-3 prostate, 14.7 µM in the test with SN12C renal and 15 µM in the test on SNB-19 CNS.

Consider `O=C1/C(=C/c2ccc(Cl)cc2)CCC1CN1CCOCC1` (centres undefined), for which the TGI in the test with CAKI-1 renal amounted to 9.46 µM; in the test on CCRF-CEM leukemia, 6.84 µM; in the test on DU-145 prostate, 16.1 µM; with MDA-MB-231 breast, 11.2 µM; in the test on MOLT-4 leukemia it was 4.21 µM; in the test on NCI-H226 lung, 42.3 µM. In addition, the TGI in the test with OVCAR-3 ovarian is 15 µM; in the test on PC-3 prostate it was 18.5 µM; in the test with SN12C renal it was 8.9 µM; in the test with SNB-19 CNS, 30.8 µM.

Turning to `O=C1C(Br)=C(Br)C(=O)c2ccccc21`, the TGI in the test with CAKI-1 renal was 13.7 µM; in the test on DU-145 prostate, 33 µM; with MDA-MB-231 breast it was 11.6 µM; with NCI-H226 lung, 31.9 µM and 12.2 µM; in the test on OVCAR-3 ovarian, 32.4 µM and 27.7 µM; in the test on PC-3 prostate it was 31.7 µM. For the same compound, the concentration for total growth inhibition (TGI) in the test with SN12C renal is 30.2 µM and 17.1 µM; with SNB-19 CNS, 37.9 µM and 17.4 µM. In addition, the GI50 is 9.85 µM and 2.25 µM in the test with CCRF-CEM leukemia; 7.01 µM and 1.34 µM in the test with MOLT-4 leukemia; 15.5 µM and 4.52 µM in the test on NCI-H226 lung; 17.9 µM and 8.34 µM with OVCAR-3 ovarian; 16.4 µM and 5.09 µM in the test on SN12C renal; 18.8 µM and 9.17 µM in the test on SNB-19 CNS.

For `CC[C@H](C)[C@H](NC(=O)NC(C)(C)C)C(=O)N(C)[C@H](C[C@@H](OC(C)=O)c1nc(C(=O)N[C@@H](Cc2ccccc2)C[C@H](C)C(=O)OC)cs1)C(C)C`, the GI50 with CAKI-1 renal is 1.12 µM; in the test with CCRF-CEM leukemia it was 0.718 µM; in the test on DU-145 prostate, 0.648 µM; in the test on MDA-MB-231 breast, 0.726 µM; with MOLT-4 leukemia, 0.853 µM; in the test on NCI-H226 lung it was 1.95 µM. In addition, the GI50 in the test with OVCAR-3 ovarian was 0.158 µM; with PC-3 prostate, 0.924 µM; in the test with SN12C renal, 1.07 µM; in the test with SNB-19 CNS it was 1.12 µM. The TGI was > 25 µM in the test on CAKI-1 renal; > 25 µM in the test on CCRF-CEM leukemia; > 6.3 µM in the test on DU-145 prostate; 2.98 µM in the test on MDA-MB-231 breast; > 25 µM with MOLT-4 leukemia; > 25 µM in the test on NCI-H226 lung. The TGI in the test on OVCAR-3 ovarian is 0.964 µM; with PC-3 prostate it was > 25 µM; in the test with SN12C renal it was > 25 µM; in the test with SNB-19 CNS, > 25 µM.

In the case of `Cc1ccc2nc3c(n2c1)C(=O)C(=O)c1ccccc1-3`, the GI50 in the test with CAKI-1 renal is 1.28 µM; with CCRF-CEM leukemia, 0.429 µM; in the test on DU-145 prostate, 0.288 µM; in the test on MDA-MB-231 breast, 0.505 µM; in the test with MOLT-4 leukemia, 0.434 µM; in the test with NCI-H226 lung it was 0.371 µM. The GI50 was 0.285 µM with OVCAR-3 ovarian, 0.59 µM in the test with PC-3 prostate, 0.153 µM with SN12C renal and 0.565 µM in the test with SNB-19 CNS. The TGI came out at 2.71 µM in the test with CAKI-1 renal; 3.37 µM with CCRF-CEM leukemia; 1.12 µM in the test with DU-145 prostate; 3.07 µM with MDA-MB-231 breast; 1.79 µM with MOLT-4 leukemia; 1.29 µM in the test on NCI-H226 lung. For the same compound, the TGI in the test with OVCAR-3 ovarian turned out to be 1.07 µM; with PC-3 prostate, 3.81 µM; with SN12C renal, 0.303 µM; in the test with SNB-19 CNS, 1.58 µM.

Take `COc1ccc(C2=N[C@@H](c3ccc(Cl)cc3)[C@@H](c3ccc(Cl)cc3)N2C(=O)N2CCNC(=O)C2)c(OC(C)C)c1`: the GI50 was 11.7 µM and 1.63 µM and 2.35 µM in the test on CAKI-1 renal; 14.7 µM and 16.8 µM and 18.4 µM in the test with CCRF-CEM leukemia; 15.2 µM and 15.8 µM and 16.6 µM with DU-145 prostate; 17.2 µM and 13 µM and 14.8 µM in the test on MDA-MB-231 breast; 7.54 µM and 3.5 µM and 2.74 µM in the test on MOLT-4 leukemia; 13.7 µM and 1.57 µM and 1.56 µM in the test on NCI-H226 lung. The GI50 with OVCAR-3 ovarian was 14 µM and 13.1 µM and 13.7 µM; in the test on PC-3 prostate, 11.2 µM and 11.1 µM and 12.3 µM; in the test with SN12C renal it was 15.6 µM and 14.9 µM and 14.1 µM; in the test on SNB-19 CNS it was 12.5 µM and 15.5 µM and 14.6 µM. The TGI was 24.7 µM and 12.9 µM and 14.5 µM with CAKI-1 renal; 35.4 µM and 42.7 µM and 50 µM in the test on CCRF-CEM leukemia; 28.7 µM and 29.3 µM and 30.3 µM with DU-145 prostate; 38.4 µM and 27.1 µM and 29.6 µM with MDA-MB-231 breast; 28.4 µM and > 36.2 µM and 17.2 µM with MOLT-4 leukemia; 30.2 µM and 6.83 µM and 5.86 µM in the test on NCI-H226 lung. Moreover, the TGI with OVCAR-3 ovarian is 27.2 µM and 26 µM and 26.8 µM; in the test with PC-3 prostate, 26.7 µM and 24.9 µM and 28 µM; in the test on SN12C renal it was 34 µM and 29.9 µM and 28.7 µM; in the test on SNB-19 CNS, 26.1 µM and 30.1 µM and 28.2 µM.

Consider `OCCn1cc(-c2cnc3nnn(Cc4ccc5ncccc5c4)c3n2)cn1`, for which the GI50 with CAKI-1 renal, with CCRF-CEM leukemia, in the test with DU-145 prostate, with MDA-MB-231 breast, in the test on MOLT-4 leukemia and in the test on NCI-H226 lung was > 100 µM throughout. Besides, the GI50 in the test on OVCAR-3 ovarian, in the test on PC-3 prostate, in the test on SN12C renal and in the test with SNB-19 CNS was > 100 µM in each case. Further, the TGI in the test with CAKI-1 renal, in the test with CCRF-CEM leukemia, in the test on DU-145 prostate, in the test with MDA-MB-231 breast, with MOLT-4 leukemia and in the test on NCI-H226 lung was > 100 µM in each case. Further, the TGI in the test with OVCAR-3 ovarian, in the test on PC-3 prostate, in the test with SN12C renal and in the test on SNB-19 CNS was > 100 µM each time.

As for `CCOC(=O)Cn1c(-c2nonc2NC(=O)c2ccccc2F)nc2ccccc21`, the GI50 is 2.33 µM in the test on CAKI-1 renal; > 100 µM with CCRF-CEM leukemia; 4.96 µM with DU-145 prostate; 28.7 µM in the test on MDA-MB-231 breast; 0.451 µM in the test with MOLT-4 leukemia; 19.5 µM with NCI-H226 lung. Also, the GI50 was 7.07 µM in the test on OVCAR-3 ovarian, 3.16 µM with PC-3 prostate, 26.2 µM in the test on SN12C renal and 5.58 µM in the test with SNB-19 CNS. Besides, the TGI in the test on CAKI-1 renal, with CCRF-CEM leukemia, in the test on DU-145 prostate, in the test with MDA-MB-231 breast, in the test on MOLT-4 leukemia and with NCI-H226 lung was > 100 µM each time. Besides, the TGI was > 100 µM with OVCAR-3 ovarian, > 82.1 µM in the test with PC-3 prostate, > 100 µM in the test on SN12C renal and > 100 µM in the test on SNB-19 CNS.
